This is an account of results in ChEMBL document CHEMBL3045197, “Design and synthesis of new 2-aryl, 3-benzyl-(1,3-oxazolidine or 1,3-thiazolidine)-4-ones as selective cyclooxygenase (COX-2) inhibitors” (Med Chem Res, 2010).

For assay [1], the target named is Prostaglandin G/H synthase 2 (Ovis aries) (UniProt P79208). Description: Inhibition of Ovis aries (sheep) COX-2 by Chemoiluminescence assay.
For another assay, the species on record is Ovis aries. Description: Selectivity index, ratio of IC50 for Ovis aries (sheep) COX-1 to IC50 for Ovis aries (sheep) COX-2.
The target in assay [2] is Prostaglandin G/H synthase 1 (Ovis aries) (UniProt P05979). Description: Inhibition of Ovis aries (sheep) COX-1 by Chemoiluminescence assay.

Chain of Prostaglandin G/H synthase 2 (Ovis aries) (P79208 whole entry, looked up): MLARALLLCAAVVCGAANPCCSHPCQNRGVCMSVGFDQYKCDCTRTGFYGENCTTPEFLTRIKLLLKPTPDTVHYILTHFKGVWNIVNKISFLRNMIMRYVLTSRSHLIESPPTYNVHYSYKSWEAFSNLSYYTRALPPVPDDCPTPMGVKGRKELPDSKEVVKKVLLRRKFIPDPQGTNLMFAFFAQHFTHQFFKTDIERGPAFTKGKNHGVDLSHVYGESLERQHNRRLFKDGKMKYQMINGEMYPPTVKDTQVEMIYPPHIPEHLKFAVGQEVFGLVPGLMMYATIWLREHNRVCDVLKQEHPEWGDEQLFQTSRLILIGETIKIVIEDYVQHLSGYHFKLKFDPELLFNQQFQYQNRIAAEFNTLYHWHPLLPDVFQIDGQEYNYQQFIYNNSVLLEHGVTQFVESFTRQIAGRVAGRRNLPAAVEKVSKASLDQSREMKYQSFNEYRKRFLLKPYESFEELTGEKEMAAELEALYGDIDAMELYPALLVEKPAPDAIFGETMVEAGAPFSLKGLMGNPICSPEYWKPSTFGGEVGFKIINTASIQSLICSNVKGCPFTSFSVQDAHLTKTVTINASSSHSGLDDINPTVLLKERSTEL

One may read the IC50 as the concentration that gives 50% inhibition. Lower therefore signals inhibition by little substance. Take `CC1OC(c2ccc(S(C)(=O)=O)cc2)N(Cc2ccccc2)C1=O` (racemic): the IC50 in assay [1] stood at 270 nM; in assay [2], 85900 nM. Moreover, the Ratio IC50 in the assay filed under Ovis aries is 318.

`CS(=O)(=O)c1ccc(C2OCC(=O)N2Cc2ccccc2)cc1` (configuration not stated): the figures for the IC50 in assay [1] and in assay [2] were 210 nM and more than 100000 nM, respectively. The Ratio IC50 in the assay listed under Ovis aries is more than 476.

Turning to `CC1SC(c2ccc(S(C)(=O)=O)cc2)N(Cc2ccccc2)C1=O` (racemic), the half-inhibitory concentration (IC50) in assay [1] is 340 nM; in assay [2] it was 75600 nM. For the same compound, the Ratio IC50 in the assay listed under Ovis aries is 222.

As to `CS(=O)(=O)c1ccc(C2SCC(=O)N2Cc2ccccc2)cc1` (configuration not stated), the IC50 in assay [1] was 320 nM; in assay [2], more than 100000 nM. In the assay filed under Ovis aries, the Ratio IC50 is more than 312.
